Several values for one entry are separate records, joined by “and”; a condition that tells them apart may be missing. Identical values can stand only once. Like-named read-outs stand apart in the source and are kept apart here.
Assays:
aldose reductase = biological target: T1, aldose reductase (Bos taurus, UniProt P16116); assay: aldose reductase inhibiting effects in vitro (Table I, IN VITRO); type: biochemical, bovine (lens); conditions: for inhibition at 0.04 µM / inhibition at 0.1 µM / inhibition at 1 µM / inhibition at 10 µM: read-out: % Inhibition IN VITRO
T1 construct: preparation of the enzyme from bovine lens; from tissue; host or cells: bovine lens
Source text: In the present case the procedure of Hayman and Kinoshita was modified in that the final chromatography step was omitted in the preparation of the enzyme from bovine lens. The results are tabulated in Table I under the heading IN VITRO.

dulcitol accumulation = assay: lowering of dulcitol (galactitol) accumulation in tissues of galactosemic rats (Table I, IN VIVO); design: species or system rat (Sprague-Dawley); conditions: galactosemic rats, 4 days; for % Lowering dulcitol accumulation IN VIVO, D: diaphragm; for % Lowering dulcitol accumulation IN VIVO, L: lens
Source text: Such experiments are exemplified hereinbelow after the listing of the following general comments pertaining to these experiments:
(a) Four or more groups of six male rats, […], Sprague-Dawley strain, were used. The first group, the control group, was fed a mixture of laboratory chow (rodent Laboratory Chow, Purina) and […] at 20% (w/w %) concentration. […] The test compound was either admixed to the diet or administered by gavage. In experiments involving compound administration in the diet, the average dose administered was calculated from the actual food intake of the animals in each group. The concentration of galactose in the diet of the treated groups was the same as that for the untreated galactosemic group.
(b) After four days, the animals were killed by decapitation. The eyeballs were removed and punctured with a razor blade; the freed lenses were rolled gently on filter paper and weighed. The sciatic nerves were dissected as completely as possible and weighed. Both tissues when frozen can be kept up to two weeks before being analyzed for galactitol.
Only two minor reagent changes were made: (a) the rinsing mixture was an aqueous 5% (w/v) trichloroacetic acid solution and (b) the stock solution was prepared by dissolving 25 mg of dulcitol in 100 mL of an aqueous trichloroacetic acid solution. [N.B.: For each experiment the average value found in the tissue from rats fed the glucose diet was subtracted from the individual values found in the corresponding tissue in galactose-fed rats to obtain the amount of polyol accumulated.]
The figures under L, N, and D represent the percentage decrease of galactitol accumulation in the tissues of the lens, sciatic nerve, and diaphragm, respectively, for treated rats as compared to untreated rats.

Compound	inhibition at 0.04 µM (aldose reductase; 4 × 10^-8 M)	inhibition at 0.1 µM (aldose reductase; 10^-7 M)	inhibition at 10 µM (aldose reductase)	inhibition at 10 µM (aldose reductase; 10^-5 M)	inhibition at 1 µM (aldose reductase; 10^-6 M)	also measured
COc1ccc2c(C(=S)N(C)CC(=O)O)c(OCc3ccccc3)ccc2c1C(F)(F)F	45%	84%	96%	–	–	inhibition at 1 µM (aldose reductase): 96%
COc1ccc2c(C(=O)N(C)CC(=O)O)c(Cl)ccc2c1C(F)(F)F [Cl O OH, N-[[2-Chloro-6-methoxy-5-(trifluoromethyl)-1-naphthalenyl]carbonyl]-N-methylglycine]	36%	63%	–	90%	87%	–
COc1ccc2c(C(=O)N(C)CC(N)=O)c(Cl)ccc2c1C(F)(F)F [Example 2, [[[2-Chloro-6-methoxy-5-(trifluoromethyl)-1-naphthalenyl]carbonyl]methylamino]acetamide]	–	–	–	9%	0%	% Lowering dulcitol accumulation IN VIVO, D (dulcitol accumulation; 24 mg/kg): 53%; % Lowering dulcitol accumulation IN VIVO, L (dulcitol accumulation; 24 mg/kg): N.S.
COc1ccc2c(C(=O)N(C)CC(=O)O)c(OCC(F)(F)F)ccc2c1C(F)(F)F [Example 3, N-[[6-Methoxy-2-(2,2,2-trifluoroethoxy)-5-(trifluoromethyl)-1-naphthalenyl]carbonyl]-N-methylglycine]	32%	67%	96%	–	91%	–
CCOc1ccc2c(C(F)(F)F)c(OC)ccc2c1C(=S)N(C)CC(=O)O [Example 4, N-[[2-Ethoxy-6-methoxy-5-(trifluoromethyl)-1-naphthalenyl]thioxomethyl]-N-methylglycine]	50%	87%	98%	–	95%	% Lowering dulcitol accumulation IN VIVO, D (dulcitol accumulation; 28 mg/kg): 85%; % Lowering dulcitol accumulation IN VIVO, L (dulcitol accumulation; 28 mg/kg): N.S.
COc1ccc2c(C(=S)N(C)CC(=O)O)c(OCC(F)(F)F)ccc2c1C(F)(F)F [Example 5, N-[[6-Methoxy-2-(2,2,2-trifluoroethoxy)-5-(trifluoromethyl)-1-naphthalenyl]thioxomethyl]-N-methylglycine]	49%	87%	99%	–	95%	% Lowering dulcitol accumulation IN VIVO, D (dulcitol accumulation; 26 mg/kg): 88%; % Lowering dulcitol accumulation IN VIVO, L (dulcitol accumulation; 26 mg/kg): N.S.
CCOc1ccc2c(C(F)(F)F)c(OC)ccc2c1C(=O)N(C)CC(=O)O [Example 6, N-[[2-Ethoxy-6-methoxy-5-(trifluoromethyl)-1-naphthalenyl]carbonyl]-N-methylglycine]	33%	–	–	89%	89%	inhibition at 0.1 µM (aldose reductase): 65%; % Lowering dulcitol accumulation IN VIVO, D (dulcitol accumulation; 49 mg/kg): 57%; % Lowering dulcitol accumulation IN VIVO, L (dulcitol accumulation; 49 mg/kg): N.S.
CCCOc1ccc2c(C(F)(F)F)c(OC)ccc2c1C(=O)N(C)CC(=O)O [Example 7, N-[[6-Methoxy-2-propoxy-5-(trifluoromethyl)-1-naphthalenyl]carbonyl]-N-methylglycine]	21%	–	–	–	–	inhibition at 0.1 µM (aldose reductase): 46%; % Lowering dulcitol accumulation IN VIVO, D (dulcitol accumulation; 50 mg/kg): 57%; % Lowering dulcitol accumulation IN VIVO, L (dulcitol accumulation; 50 mg/kg): N.S.
COc1ccc2c(C(=O)N(C)CC(=O)O)c(Oc3ccccc3)ccc2c1C(F)(F)F [Example 8, N-[[6-Methoxy-2-phenoxy-5-(trifluoromethyl)-1-naphthalenyl]carbonyl]-N-methylglycine]	50%	83%	93%	–	–	inhibition at 1 µM (aldose reductase): 93%; % Lowering dulcitol accumulation IN VIVO, D (dulcitol accumulation; 48 mg/kg): 67%; % Lowering dulcitol accumulation IN VIVO, L (dulcitol accumulation; 48 mg/kg): N.S.
COc1ccc2c(C(=O)N(C)CC(=O)O)c(Br)ccc2c1C(F)(F)F [Example 9, N-[[2-Bromo-6-methoxy-5-(trifluoromethyl)-1-naphthalenyl]carbonyl]-N-methylglycine]	–	63%	–	95%	90%	% Lowering dulcitol accumulation IN VIVO, D (dulcitol accumulation; 97 mg/kg): 84%; % Lowering dulcitol accumulation IN VIVO, L (dulcitol accumulation; 97 mg/kg): 8%
COc1ccc2c(C(=S)N(C)CC(=O)O)c(Cl)ccc2c1C(F)(F)F [Example 10, N-[[2-Chloro-6-methoxy-5-(trifluoromethyl)-1-naphthalenyl]thioxomethyl]-N-methylglycine]	51%	81%	–	95%	91%	% Lowering dulcitol accumulation IN VIVO, D (dulcitol accumulation; 24 mg/kg): 90%; % Lowering dulcitol accumulation IN VIVO, L (dulcitol accumulation; 24 mg/kg): N.S.
CCCCOc1ccc2c(C(F)(F)F)c(OC)ccc2c1C(=O)N(C)CC(=O)O [Example 12, N-[[2-Butoxy-6-methoxy-5-(trifluoromethyl)-1-naphthalenyl]carbonyl]-N-methylglycine]	25%	42%	–	92%	88%	% Lowering dulcitol accumulation IN VIVO, D (dulcitol accumulation; 49 mg/kg): 55%; % Lowering dulcitol accumulation IN VIVO, L (dulcitol accumulation; 49 mg/kg): N.S.
CCOC(=O)NC(=O)CN(C)C(=O)c1c(F)ccc2c(C(F)(F)F)c(OC)ccc12 [F O NHCO2 C2 H5, N-[2-[(Ethoxycarbonyl)amino]-2-oxoethyl]-2-fluoro-6-methoxy-N-methyl-5-(trifluoromethyl)-1-naphthalenecarboxamide]	–	–	–	8%	2%	% Lowering dulcitol accumulation IN VIVO, D (dulcitol accumulation; 22 mg/kg): 55%; % Lowering dulcitol accumulation IN VIVO, L (dulcitol accumulation; 22 mg/kg): N.S.
COc1ccc2c(C(=O)N(C)CC(=O)O)c(F)ccc2c1C(F)(F)F [F O OH, N-[[2-Fluoro-6-methoxy-5-(trifluoromethyl)-1-naphthalenyl]carbonyl]-N-methylglycine]	49%	80%	94%	–	–	inhibition at 1 µM (aldose reductase): 93%; % Lowering dulcitol accumulation IN VIVO, L (dulcitol accumulation; 52 mg/kg): 15%; % Lowering dulcitol accumulation IN VIVO, L (dulcitol accumulation; 100 mg/kg): 17%
COc1ccc2c(C(=S)N(C)CC(N)=O)c(F)ccc2c1C(F)(F)F [F S NH2, [[[2-Fluoro-6-methoxy-5-(trifluoromethyl)-1-naphthalenyl]thioxomethyl]methylamino]acetamide]	–	–	–	2%	6%	–
COc1ccc2c(C(=S)N(C)CC(=O)O)c(F)ccc2c1C(F)(F)F [F S OH, N-[[2-Fluoro-6-methoxy-5-(trifluoromethyl)-1-naphthalenyl]thioxomethyl]-N-methylglycine]	45%	–	99%	–	–	inhibition at 1 µM (aldose reductase): 94%; % Lowering dulcitol accumulation IN VIVO, D (dulcitol accumulation; 4.8 mg/kg): 86%; % Lowering dulcitol accumulation IN VIVO, D (dulcitol accumulation; 25 mg/kg): 93%; % Lowering dulcitol accumulation IN VIVO, L (dulcitol accumulation; 4.8 mg/kg): N.S.; % Lowering dulcitol accumulation IN VIVO, L (dulcitol accumulation; 25 mg/kg): 23%
COc1ccc2c(C(=O)N(C)CC(N)=O)c(OCC(F)(F)F)ccc2c1C(F)(F)F [OCH2 CF3 O NH2]	–	–	–	8%	1%	% Lowering dulcitol accumulation IN VIVO, D (dulcitol accumulation; 24 mg/kg): N.S.; % Lowering dulcitol accumulation IN VIVO, L (dulcitol accumulation; 24 mg/kg): N.S.
COc1ccc2c(C(F)(F)F)c(OC)ccc2c1C(=O)N(C)CC(=O)O [OCH3 O OH]	56%	–	99%	95%	95%	% Inhibition IN VITRO (aldose reductase; 10^-6 M): 92%; % Inhibition IN VITRO (aldose reductase; 10^-7 M): 91% and 62%; inhibition at 0.04 µM (aldose reductase): 38%; % Lowering dulcitol accumulation IN VIVO, D (dulcitol accumulation; 26 mg/kg): 71%; % Lowering dulcitol accumulation IN VIVO, D (dulcitol accumulation; 53 mg/kg): N.S.; % Lowering dulcitol accumulation IN VIVO, L (dulcitol accumulation; 26 mg/kg): N.S.; % Lowering dulcitol accumulation IN VIVO, L (dulcitol accumulation; 53 mg/kg): N.S.

Source: patent publication US4962224A, “N-naphthoylglycines as aldose reductase inhibitors” (American Home Products Corporation, priority 1989, dated 1990)
